Measurements taken from ChEMBL document CHEMBL3526135, “Induction of xenobiotic receptors, transporters, and drug metabolizing enzymes by oxycodone” (Drug Metab Dispos, 2013).

Assays:
Format in all cases: ADME, organism-based
Parameters in all cases: dose 15 mg/kg, route intraperitoneal
Rattus norvegicus [1] = experiment: Effect on CYP2b2 mRNA expression in Sprague-Dawley rat liver at 15 mg/kg, ip administered twice daily every 12 hrs for 8 days by qRT-PCR analysis relative to control; conditions: in vivo
Rattus norvegicus [2] = experiment: Effect on Por mRNA expression in Sprague-Dawley rat liver at 15 mg/kg, ip administered twice daily every 12 hrs for 8 days by qRT-PCR analysis relative to control; conditions: in vivo
Rattus norvegicus [3] = experiment: Effect on Abcb1a mRNA expression in Sprague-Dawley rat liver at 15 mg/kg, ip administered twice daily every 12 hrs for 8 days by qRT-PCR analysis relative to control; conditions: in vivo
Rattus norvegicus [4] = experiment: Effect on PXR mRNA expression in Sprague-Dawley rat liver at 15 mg/kg, ip administered twice daily every 12 hrs for 8 days by qRT-PCR analysis relative to control; conditions: in vivo
Rattus norvegicus [5] = experiment: Effect on AhR mRNA expression in Sprague-Dawley rat liver at 15 mg/kg, ip administered twice daily every 12 hrs for 8 days by qRT-PCR analysis relative to control; conditions: in vivo
Rattus norvegicus [6] = experiment: Effect on Slc15a3 mRNA expression in Sprague-Dawley rat liver at 15 mg/kg, ip administered twice daily every 12 hrs for 8 days by qRT-PCR analysis relative to control; conditions: in vivo
Rattus norvegicus [7] = experiment: Effect on CYP2c13 mRNA expression in Sprague-Dawley rat liver at 15 mg/kg, ip administered twice daily every 12 hrs for 8 days by qRT-PCR analysis relative to control; conditions: in vivo
Rattus norvegicus [8] = experiment: Effect on Slc22a8 mRNA expression in Sprague-Dawley rat liver at 15 mg/kg, ip administered twice daily every 12 hrs for 8 days by qRT-PCR analysis relative to control; conditions: in vivo
Rattus norvegicus [9] = experiment: Effect on CYP3a1 mRNA expression in Sprague-Dawley rat liver at 15 mg/kg, ip administered twice daily every 12 hrs for 8 days by qRT-PCR analysis relative to control; conditions: in vivo
Rattus norvegicus [10] = experiment: Effect on Slc38a4 mRNA expression in Sprague-Dawley rat liver at 15 mg/kg, ip administered twice daily every 12 hrs for 8 days by qRT-PCR analysis relative to control; conditions: in vivo
Rattus norvegicus [11] = experiment: Effect on GAPDH mRNA expression in Sprague-Dawley rat liver at 15 mg/kg, ip administered twice daily every 12 hrs for 8 days by qRT-PCR analysis relative to control; conditions: in vivo
CYP2b2 [12] = experiment: Upregulation of CYP2b2 protein expression in Sprague-Dawley rat liver microsomes at 15 mg/kg, ip administered twice daily every 12 hrs for 8 days by Western blot analysis relative to control; conditions: read-out: FC
ABCB1 = experiment: Upregulation of ABCB1 protein expression in Sprague-Dawley rat liver microsomes at 15 mg/kg, ip administered twice daily every 12 hrs for 8 days by Western blot analysis relative to control; conditions: read-out: FC
CYP17a1 = experiment: Effect on CYP17a1 mRNA expression in Sprague-Dawley rat liver at 15 mg/kg, ip administered twice daily every 12 hrs for 8 days by microarray analysis relative to control; conditions: read-out: FC
Yc2/Gsta5 = experiment: Effect on Yc2/Gsta5 mRNA expression in Sprague-Dawley rat liver at 15 mg/kg, ip administered twice daily every 12 hrs for 8 days by microarray analysis relative to control; conditions: read-out: FC
CYP2b2 [13] = experiment: Effect on CYP2b2 mRNA expression in Sprague-Dawley rat liver at 15 mg/kg, ip administered twice daily every 12 hrs for 8 days by microarray analysis relative to control; conditions: read-out: FC
FMO1 = experiment: Effect on FMO1 mRNA expression in Sprague-Dawley rat liver at 15 mg/kg, ip administered twice daily every 12 hrs for 8 days by microarray analysis relative to control; conditions: read-out: FC
CYP2j4 = experiment: Effect on CYP2j4 mRNA expression in Sprague-Dawley rat liver at 15 mg/kg, ip administered twice daily every 12 hrs for 8 days by microarray analysis relative to control; conditions: read-out: FC
CYP2a1 = experiment: Effect on CYP2a1 mRNA expression in Sprague-Dawley rat liver at 15 mg/kg, ip administered twice daily every 12 hrs for 8 days by microarray analysis relative to control; conditions: read-out: FC
CYP3a1 = experiment: Effect on CYP3a1 mRNA expression in Sprague-Dawley rat liver at 15 mg/kg, ip administered twice daily every 12 hrs for 8 days by microarray analysis relative to control; conditions: read-out: FC
CYP2e1 = experiment: Effect on CYP2e1 mRNA expression in Sprague-Dawley rat liver at 15 mg/kg, ip administered twice daily every 12 hrs for 8 days by microarray analysis relative to control; conditions: read-out: FC
NR1I3 = experiment: Effect on NR1I3 mRNA expression in Sprague-Dawley rat liver at 15 mg/kg, ip administered twice daily every 12 hrs for 8 days by microarray analysis relative to control; conditions: read-out: FC
Abcg5 = experiment: Effect on Abcg5 mRNA expression in Sprague-Dawley rat liver at 15 mg/kg, ip administered twice daily every 12 hrs for 8 days by microarray analysis relative to control; conditions: read-out: FC
Abcb1a = experiment: Effect on Abcb1a mRNA expression in Sprague-Dawley rat liver at 15 mg/kg, ip administered twice daily every 12 hrs for 8 days by microarray analysis relative to control; conditions: read-out: FC
Slc1a2 = experiment: Effect on Slc1a2 mRNA expression in Sprague-Dawley rat liver at 15 mg/kg, ip administered twice daily every 12 hrs for 8 days by microarray analysis relative to control; conditions: read-out: FC
Abca8b = experiment: Effect on Abca8b mRNA expression in Sprague-Dawley rat liver at 15 mg/kg, ip administered twice daily every 12 hrs for 8 days by microarray analysis relative to control; conditions: read-out: FC
Slc37a4 = experiment: Effect on Slc37a4 mRNA expression in Sprague-Dawley rat liver at 15 mg/kg, ip administered twice daily every 12 hrs for 8 days by microarray analysis relative to control; conditions: read-out: FC
Slc27a5 = experiment: Effect on Slc27a5 mRNA expression in Sprague-Dawley rat liver at 15 mg/kg, ip administered twice daily every 12 hrs for 8 days by microarray analysis relative to control; conditions: read-out: FC
Slc39a4 = experiment: Effect on Slc39a4 mRNA expression in Sprague-Dawley rat liver at 15 mg/kg, ip administered twice daily every 12 hrs for 8 days by microarray analysis relative to control; conditions: read-out: FC
Slc17a5 = experiment: Effect on Slc17a5 mRNA expression in Sprague-Dawley rat liver at 15 mg/kg, ip administered twice daily every 12 hrs for 8 days by microarray analysis relative to control; conditions: read-out: FC
Abcb4 = experiment: Effect on Abcb4 mRNA expression in Sprague-Dawley rat liver at 15 mg/kg, ip administered twice daily every 12 hrs for 8 days by microarray analysis relative to control; conditions: read-out: FC
Slc21a10 = experiment: Effect on Slc21a10 mRNA expression in Sprague-Dawley rat liver at 15 mg/kg, ip administered twice daily every 12 hrs for 8 days by microarray analysis relative to control; conditions: read-out: FC
Slc2a2 = experiment: Effect on Slc2a2 mRNA expression in Sprague-Dawley rat liver at 15 mg/kg, ip administered twice daily every 12 hrs for 8 days by microarray analysis relative to control; conditions: read-out: FC

COc1ccc2c3c1O[C@H]1C(=O)CC[C@@]4(O)[C@@H](C2)N(C)CC[C@]314.Cl [OXYCODONE HYDROCHLORIDE]
Activity (Rattus norvegicus [1]): Active | Activity (Rattus norvegicus [2]): Active | Activity (Rattus norvegicus [3]): Active | Activity (Rattus norvegicus [4]): Active | Activity (Rattus norvegicus [5]): Active | Activity (Rattus norvegicus [6]): Active | Activity (Rattus norvegicus [7]): Active | Activity (Rattus norvegicus [8]): Active | Activity (Rattus norvegicus [9]): Active | Activity (Rattus norvegicus [10]): Active | Activity (Rattus norvegicus [11]): Active | fold induction at 8 days (CYP2b2 [12]): 5 | fold induction at 8 days (ABCB1): 3 | fold induction at 8 days (CYP17a1): 17.1 | fold induction at 8 days (Yc2/Gsta5): 7 | fold induction at 8 days (CYP2b2 [13]): 6 | fold induction at 8 days (FMO1): 3.7 | fold induction at 8 days (CYP2j4): 2.4 | fold induction at 8 days (CYP2a1): 1.7 | fold induction at 8 days (CYP3a1): 1.7 | fold induction at 8 days (CYP2e1): 1.5 | fold induction at 8 days (NR1I3): 6.1 | fold induction at 8 days (Abcg5): 3.6 | fold induction at 8 days (Abcb1a): 2.8 | fold induction at 8 days (Slc1a2): 2.4 | fold induction at 8 days (Abca8b): 2.3 | fold induction at 8 days (Slc37a4): 2 | fold induction at 8 days (Slc27a5): 1.6 | fold induction at 8 days (Slc39a4): 1.6 | fold induction at 8 days (Slc17a5): 1.5 | fold induction at 8 days (Abcb4): 1.5 | fold induction at 8 days (Slc21a10): 1.5 | fold induction at 8 days (Slc2a2): 1.5
